Test results: PubChem BioAssay AID2102 (Southern Research Specialized Biocontainment Screening …, 2009)

What follows are compounds tested on Host cell viability cytotoxicity counter-screen, SV40 T antigen hits (assay: host cell cytotoxicity, dose response, cytotoxicity control for SV40 T antigen inhibitor project, selected hits (AID 2102);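 also: cells exposed to compounds for 72 hours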).
Compound `CCCCCCCCCCCCCCCC[N+](C)(C)CCN(Cc1ccc(OC)cc1)c1ncccn1` has a CC50 of 7.39 µM.
`COc1cc(CNc2ccc(N3CCOCC3)cc2)ccc1OCC(=O)NC(C)(C)C` was tested, and the CC50 was 30.8 µM.
`COc1cc(CNc2ccc(N3CCCCC3)cc2)ccc1OCC(=O)NC(C)(C)C` showed a CC50 of 24.5 µM.
In the case of `N#Cc1ccccc1CN1C(=O)S/C(=C/c2cccn2-c2cccc(C(=O)O)c2)C1=O`, the CC50 is reported as 16.9 µM.
In the case of `C=CCn1c(=S)[nH]c2scc(-c3ccco3)c2c1=O`, the CC50 is reported as 32.5 µM.
In the case of `Oc1ccc(N2CCN(C(=S)NCCc3ccccc3)CC2)cc1`, the CC50 is reported as 45 µM.
`CN(C)S(=O)(=O)c1cccc(-n2sc3ccccc3c2=O)c1` gave a CC50 of 30.4 µM.
Compound `Cc1ccc2nc(-c3ccccn3)c(NC3CCCC3)n2c1` has a CC50 of 15.1 µM.
Compound `O=C1NC(=S)S/C1=C\c1ccc(SCc2ccccc2)o1` has a CC50 of 30 µM.
`Cc1ccc(S(=O)(=O)N2[C@@H](c3ccc(Cl)cc3)C(C(=O)O)=CC[C@H]2c2ccc(Cl)cc2)cc1` showed a CC50 of 30.7 µM.
For `CCOc1ccc(NCc2cccn2-c2nnc(N3CCC(C(=O)NCCCN4CC(C)CC(C)C4)CC3)s2)cc1` (centres undefined), the CC50 was 36.9 µM.
`Oc1cc2c(c(Cl)c1O)CCNCC2c1ccccc1` (centres undefined) gave a CC50 of 41 µM.
Compound `CCCCNC(=O)c1sc(=S)n2c1[nH]c(=O)c1ccccc12` has a CC50 of 31.8 µM.
`C=CCn1c(SCC(C)=O)nc2scc(-c3ccco3)c2c1=O` showed a CC50 of 48.4 µM.
`COc1cc(OC)c(-c2c3cc(O)c(=O)cc-3oc3cc(O)c(O)cc23)cc1OC` showed a CC50 of 47.7 µM.
`O=c1oc2cc(O)ccc2s1` showed a CC50 of 31.2 µM.
`Cc1ccc(-n2sc3ccccc3c2=O)cc1S(=O)(=O)N1CCCCC1` showed a CC50 of 14.7 µM.
`Cc1ccccc1-n1sc2cc(F)ccc2c1=O` gave a CC50 of 14.6 µM.
In the case of `O=c1c2ccccc2nc(COc2ccccc2)n1/N=C/c1ccc(O)c(O)c1`, the CC50 is reported as 33.8 µM.
`CCOC(=O)c1[nH]nc(-c2cc(CC)c(O)cc2O)c1-c1cscn1` showed a CC50 of 33.7 µM.
`Cc1ccc(C2(C)NC(=O)N(CC(=O)Nc3nc(-c4ccccn4)cs3)C2=O)cc1` (centres undefined) was tested, and the CC50 was 11.3 µM.
`Cc1ccc(/C=C2/SC(=O)NC2=S)o1` gave a CC50 of 48.1 µM.
`CCN(CC)c1ccc(NC(=O)C2CC(=O)N(Cc3ccccc3)C2)cc1` (centres undefined) showed a CC50 of 42.7 µM.
`Cc1ccc(S(=O)(=O)N2CCCOC2CNC(=O)C(=O)NCCc2c[nH]c3ccccc23)cc1` (centres undefined) showed a CC50 of 27.7 µM.
`CC1=C(C(=O)OCC(C)C)C(c2cccs2)NC(=S)N1` (centres undefined) showed a CC50 of 21 µM.
With `O=C(O)c1ccc(-n2cccc2/C=C2/NC(=O)N(c3ccccc3)C2=O)cc1` the CC50 was 15.6 µM.
Work on `O=C(NC1CCCC1)c1sc(=S)n2c1[nH]c(=O)c1ccccc12` yielded a CC50 of 15.9 µM.
`O=c1cc(-c2ccc(O)c(O)c2)oc2cc(O)cc(O)c12` gave a CC50 of 47.9 µM.
Compound `COc1cnc(-c2ccccn2)nc1Oc1ccc(Cl)c2ccccc12` has a CC50 of 13.7 µM.
For `CC(=O)N(c1ccc2oc(=O)sc2c1)S(=O)(=O)c1cccs1`, the CC50 was 33.8 µM.
Compound `O=c1cc2oc3cc(O)c(O)cc3c(-c3ccccc3[N+](=O)[O-])c-2cc1O` has a CC50 of 24.1 µM.
With `COc1cccc(CNc2ccc3[nH]c(=O)[nH]c3c2)c1OCc1ccccc1` the CC50 was 37 µM.
With `Cc1ccc(OCCC(=O)N2CCN(c3ccc(O)cc3)CC2)cc1` the CC50 was 20.7 µM.
Compound `CCCC[n+]1c2ccccc2cc2ccccc21` has a CC50 of 23.9 µM.
`Oc1ccc(-c2[nH]ncc2-c2cccc3cccnc23)c(O)c1` gave a CC50 of 17.3 µM.
`O=S(=O)(c1ccc(NC(=S)N2CCN(c3ccc(O)cc3)CC2)cc1)N1CCOCC1` showed a CC50 of 33 µM.
`COCCN=C1Sc2nc3c(C)cccc3cc2CN1Cc1ccco1` showed a CC50 of 23 µM.
Work on `CNc1nc(-c2ccccc2)[n+](-c2ccc(C)cc2)s1` yielded a CC50 of 36.2 µM.
`Cc1ccccc1/C=C/C(=O)c1ccc([N+](=O)[O-])o1` was tested, and the CC50 was 23.6 µM.
In the case of `CCCc1nc2ccccc2c(=O)n1/N=C/c1ccc(O)c(O)c1`, the CC50 is reported as 48.4 µM.
Work on `COc1ccc(-n2c(=O)c3c4c(sc3n3c(=S)[nH]nc23)COC(C(C)C)C4)cc1` (centres undefined) yielded a CC50 of 40.1 µM.
`C=C1C(=O)O[C@H]2[C@H]1[C@H](OC(=O)CC(=O)O[C@@H]1C[C@@H](C)[C@@H]3C=CC(=O)[C@@]3(C)[C@H]3OC(=O)C(=C)[C@H]13)C[C@@H](C)[C@H]1C=CC(=O)[C@]12C` was tested, and the CC50 was 3.95 µM.
In the case of `Clc1ccccc1CSc1nnc(-c2ccco2)c(-c2ccco2)n1`, the CC50 is reported as 24.6 µM.
For `O=C1C(SCCO)=C(SCCO)C(=O)c2ccccc21`, the CC50 was 28.2 µM.
`COc1cccc(-n2c(SCc3cc(=O)oc4cc(O)c(O)cc34)nc3ccccc3c2=O)c1` gave a CC50 of 18.2 µM.
`O=C(NN1C(=O)/C(=C/C=C/c2ccco2)SC1=S)c1ccccc1O` was tested, and the CC50 was 40.6 µM.
`COc1cc(Cl)ccc1NC(=O)COc1ccccc1C(=O)N1CCN(c2ccc(O)cc2)CC1` gave a CC50 of 33.7 µM.
Work on `CCCCC(CC)CN=C(N)NC(N)=NCCCCCCN=C(N)NC(N)=NCC(CC)CCCC` (centres undefined) yielded a CC50 of 3.49 µM.
For `Cc1c(C)n(Cc2ccccc2)c2ncnc(NN)c12`, the CC50 was 6.12 µM.
`CCN(CC)c1ccc(NC(=O)CCNS(=O)(=O)c2ccc3c(c2)CCC(=O)N3)c(C)c1` gave a CC50 of 42.2 µM.
`O=[N+]([O-])c1ccc(-[n+]2ccc3ccccc3c2)c([N+](=O)[O-])c1` was tested, and the CC50 was 29 µM.
For `O=C1NC(=S)S/C1=C\c1ccc(SCc2ccco2)o1`, the CC50 was 15.2 µM.
Compound `CC(C)c1ccc(S(=O)(=O)N2CCN(CC(=O)c3ccc(O)c(O)c3)CC2)cc1` has a CC50 of 31.3 µM.
With `O=C1NC(=Nc2ccc(O)cc2)S/C1=C\C=C\c1ccco1` the CC50 was 30.2 µM.
`CCOc1ccc(NCc2cccn2-c2nnc(N3CCC(C(=O)NCCCN4CCCCC4CC)CC3)s2)cc1` (centres undefined) gave a CC50 of 49.8 µM.
`COC1=C(Nc2ccc(O)cc2)C(=O)c2ccccc2C1=O` showed a CC50 of 16.5 µM.
For `O=C(/C=C/c1ccc(O)c(O)c1)c1ccccc1O`, the CC50 was 26.3 µM.
Compound `COc1ccc(N2CCC(CNC(=S)Nc3c(C)cccc3C)C2)cc1` (centres undefined) has a CC50 of 45.8 µM.
`CCCc1cc(-c2n[nH]c(C(=O)OCC)c2-c2cscn2)c(O)cc1O` showed a CC50 of 11.1 µM.
In the case of `Oc1ccc(/C=N/Nc2ccc(C(F)(F)F)cn2)cc1O`, the CC50 is reported as 34.6 µM.
Compound `Oc1ccc(Nc2nc(N3CCCC3)c3ccccc3n2)cc1` has a CC50 of 30.7 µM.
With `O=C(CCSc1ccc(Cl)cc1)N1CCN(c2ccc(O)cc2)CC1` the CC50 was 14.6 µM.
In the case of `Cc1cc(C(=O)c2cccs2)c(N)s1`, the CC50 is reported as 35.8 µM.
With `CN(C)c1ccc(NS(=O)(=O)c2cccc(Cl)c2)cc1` the CC50 was 47.2 µM.
Work on `CCOc1cc(N2CCOCC2)c(OCC)cc1NS(=O)(=O)c1ccc(Cl)s1` yielded a CC50 of 40 µM.
With `Nc1cnc(Nc2ccc(Br)cc2)nc1N` the CC50 was 42.2 µM.
For `O=C(N/N=C/c1cc(Br)c(O)c(Br)c1)c1cc2c(ccc3ccccc32)o1`, the CC50 was 32.3 µM.
In the case of `CCS(=O)(=O)c1ncc(Cl)c(C(=O)Nc2ccc(S(=O)(=O)N3CCC(C)CC3)cc2)n1`, the CC50 is reported as 48.6 µM.
`COc1cc(-c2cc(=O)c3ccccc3o2)ccc1O` gave a CC50 of 35.7 µM.
`CC(/C=C1\SC(=S)N(CCCC(=O)Nc2ccc(C(=O)O)c(O)c2)C1=O)=C\c1ccccc1` gave a CC50 of 38.4 µM.
With `Oc1ccc(CCNc2c3ccccc3nc3ccccc23)cc1O` the CC50 was 39.3 µM.
Work on `Cc1ccc(-c2ccc(/C=C3\C(=O)ON=C3c3ccccc3)o2)c([N+](=O)[O-])c1` yielded a CC50 of 37.5 µM.
Work on `CCOC(=O)c1c(N2C(=O)Nc3cc(Cl)c(Cl)cc3N2O)sc2c1CCCCC2` yielded a CC50 of 15.6 µM.
For `COc1ccc(N2CCC(CNC(=S)Nc3ccc(C)cc3C)C2)cc1` (centres undefined), the CC50 was 15 µM.
In the case of `Cc1nc2ncccn2c1-c1csc(Nc2ccc(N(C)C)cc2)n1`, the CC50 is reported as 27.5 µM.
Work on `CCOc1c(Br)cc(CNc2ccc(N3CCN(C(C)=O)CC3)cc2)cc1OC` yielded a CC50 of 14.2 µM.
For `CC1=NOC(=O)/C1=C\c1ccc(-c2ccccc2Br)o1`, the CC50 was 24.7 µM.
For `CC(=O)N(c1ccc2oc(=O)sc2c1)S(=O)(=O)c1ccccc1`, the CC50 was 36.8 µM.
For `O=C(CCOc1ccccc1)N1CCN(c2ccc(O)cc2)CC1`, the CC50 was 31.5 µM.
`O=C(c1ccccc1)N1CCN(c2ccc(NCc3ccc4c(c3)OCO4)cc2)CC1` showed a CC50 of 17.3 µM.
For `Cc1cc2c(N=O)c(NO)ccc2[nH]1`, the CC50 was 22.1 µM.
`CCN(CC)c1ccc(/C=N/N2CCOCC2)cc1` showed a CC50 of 49.4 µM.
Compound `O=C(CCl)Nc1ccc(N2CCCCCC2)cc1` has a CC50 of 47.1 µM.
`COc1ccc(N2CCC(CNC(=S)Nc3c(C)cc(C)cc3C)C2)cc1` (centres undefined) was tested, and the CC50 was 15.9 µM.
`COc1cc(/C=C/C(=O)c2ccc([N+](=O)[O-])o2)ccc1O` was tested, and the CC50 was 44.1 µM.
Work on `COc1ccc(NC2CCCN(Cc3cccc4cnccc34)C2)cc1OC` (centres undefined) yielded a CC50 of 35.9 µM.
`CC(=O)Nc1sc(N/N=C\c2ccco2)nc1-c1cccs1` showed a CC50 of 49.8 µM.
Work on `CN1\C(=C/C=C/C=C/C=[N+](C)C)C(C)(C)c2ccccc21` yielded a CC50 of 21.7 µM.
Work on `CCC[n+]1c2ccccc2cc2ccccc21` yielded a CC50 of 23.8 µM.
For `Cc1c(Br)c(=O)oc2c(Br)c(O)c(O)cc12`, the CC50 was 49.2 µM.
Compound `CCOc1c(Br)cc(CNc2ccc(N3CCOCC3)cc2)cc1OC` has a CC50 of 13.8 µM.
In the case of `Cc1ccc(/C=N/n2c(-c3ccco3)n[nH]c2=S)cc1`, the CC50 is reported as 24.7 µM.
Compound `CCN(CC)c1ccc(/C=C2\C(=O)N(c3nnc(C)c(=O)[nH]3)N=C2C)cc1` has a CC50 of 46.4 µM.
`CCS(=O)(=O)c1ncc(Cl)c(C(=O)Nc2ccc(S(=O)(=O)N3CCCC(C)C3)cc2)n1` (centres undefined) was tested, and the CC50 was 31.2 µM.
